Test results as given in patent publication US11884906B1, “4D-perfused tumoroid-on-a-chip platform for personalized cancer treatment applications” (University of South Florida, priority 2019, dated 2024).

Assays:
[1] = tested on: HCT116 tumoroid cells; assay: Drug response of HCT116 tumoroids on FiSS, CELLTITER-GLO viability, platform 10 (Chip) vs static system (Control); type: cell-based; conditions: 48 hours drug treatment, microfluidic platform 10 (Chip) compared with static system (Control), FIGS. 15A-15C
Description: (§1) FIG. 6 depicts the results of experiments performed on platform 10 described in detail above. In a first step, microfluidic channel layer 14 is cleaned and a scaffold to be grown on platform 10 is washed. Either 3000 cells of HT29, 2000 cells of HCT116, of 3500 cells of LLC are seeded in 100 μL of a culture media 30. After 48 hours, an additional 100 μl of the culture media 30 is added to inlet well 20, and an additional 50 μL of the culture media is added to culture well 21, with no fresh media added to outlet well 22. Approximately 48 hours after the additional media is added, a drug response test is performed. All the culture media 30 is removed from culture well 21, and 300 μL of a drug dissolved media is added to culture well 21 at the control plate. […]
(§2) A test, such as a CELLTITER-GLO® test, is performed 48 hours later to quantify the viable cells in the culture. […] Cell viability was determined using a CELLTITER-GLO® assay (Promega) according to the manufacturer's protocol. Luminescence was measured in a white well-plate in a Bio-Tek Synergy H4 plate reader (BioTek). An average luminescence value for each group was plotted as a percentage of the control group. […]

[2] = tested on: HT29 tumoroid cells; assay: Drug response of HT29 tumoroids on FiSS, CELLTITER-GLO viability, platform 10 (Chip) vs static system (Control); type: cell-based; conditions: 48 hours drug treatment, microfluidic platform 10 (Chip) compared with static system (Control), FIGS. 14A-14C
Description: as §1, §2

| Structure (SMILES) | drug dose required on platform 10 to have the same IC50 as the static systems [1] | drug dose required on platform 10 to have the same IC50 as the static systems [2] |
| --- | --- | --- |
| O=c1[nH]cc(F)c(=O)[nH]1 [fluorouracil] | lower drug dose | higher drug dose |
| O=C1[O][Pt]2([NH][C@@H]3CCCC[C@H]3[NH]2)[O]C1=O [oxaliplatin] | higher drug dose | higher drug dose |
